Reference: ChEMBL document CHEMBL4814012, “Synthesis and structure-activity relationships of 5-phenyloxazole-2-carboxylic acid derivatives as novel inhibitors of tubulin polymerization” (Bioorg Med Chem Lett, 2021)

Experiments:
[1] = test system: A549; experiment: Cytotoxicity against human A549 cells assessed as reduction in cell growth by CCK8 assay; assay type: functional, cell-based
[2] = test system: HeLa; experiment: Cytotoxicity against human HeLa cells assessed as reduction in cell growth by CCK8 assay; assay type: functional, cell-based
[3] = test system: HepG2; experiment: Cytotoxicity against human HepG2 cells assessed as reduction in cell growth by CCK8 assay; assay type: functional, cell-based
[4] = test system: BEAS-2B; experiment: Cytotoxicity against human BEAS-2B cells assessed as reduction in cell growth by CCK8 assay; assay type: cell-based
[5] = target: T1, Tubulin (Homo sapiens) (UniProt P68371+Q9H4B7+P0DPH7+P68366+Q13509+Q71U36+P04350+Q3ZCM7+P07437+P68363+Q9BQE3+Q6PEY2+Q13885+Q9BVA1+Q9BUF5); experiment: Inhibition of tubulin polymerization (unknown origin) at 40 uM measured every 30 secs for 90 mins relative to control; assay type: protein-complex assay
[6] = target: Tubulin; experiment: (§1) Inhibition of tubulin polymerization (unknown origin) measured every 30 secs for 90 mins; assay type: protein-complex assay, Homo sapiens
[7] = Selectivity ratio of IC50 for human BEAS-2B cells to IC50 for human A549 cells; assay type: toxicity; conditions: BEAS-2B cells versus A549 cells, read-out: Ratio IC50
[8] = test system: A549; experiment: Induction of cell cycle arrest in human A549 cells assessed as accumulation at S phase at 1 uM after 24 hrs by flow cytometric analysis (reference value: 15.44%); assay type: functional
[9] = test system: A549; experiment: Induction of cell cycle arrest in human A549 cells assessed as accumulation at G1 phase at 1 uM after 24 hrs by flow cytometric analysis (reference value: 70.48%); assay type: functional
[10] = target: T1, Tubulin (Homo sapiens); experiment: as §1; assay type: protein-complex assay
[11] = test system: A549; experiment: Induction of cell cycle arrest in human A549 cells assessed as accumulation at G2/M phase at 1 uM after 24 hrs by flow cytometric analysis (reference value: 14.08%); assay type: functional

Compound	IC50 [1]	IC50 [2]	IC50 [3]	other results
COc1ccc(C(=O)c2ncc(-c3ccc(OC)cc3)o2)cc1	> 30 µM	> 30 µM	> 30 µM	–
COc1cc(-c2cnc(C(=O)Nc3ccc([N+](=O)[O-])cc3)o2)cc(OC)c1OC	> 30 µM	> 30 µM	> 30 µM	–
COc1cc2c(c(OC)c1OC)-c1ccc(OC)c(=O)cc1[C@@H](NC(C)=O)CC2 [COLCHICINE]	0.053 µM	–	–	IC50 [4]: 0.016 µM
COc1ccc(NC(=O)c2ncc(-c3ccccc3)o2)cc1	> 30 µM	> 30 µM	> 30 µM	–
O=C(c1ncc(-c2ccccc2)o1)N1CCN(c2ccc(Cl)cc2)CC1	> 30 µM	> 30 µM	> 30 µM	–
O=C(c1ccc(O)cc1)c1ncc(-c2ccccc2)o1	> 30 µM	> 30 µM	> 30 µM	–
COc1ccc(-c2cnc(C(=O)Nc3ccc(O)cc3)o2)cc1F	1.2 µM	1.12 µM	1.81 µM	inhibition [5]: 46%; IC50 [4]: 2.6 µM; IC50 [6]: > 40 µM; selectivity ratio [7]: 2.17
COc1cc(C(=O)c2ncc(-c3ccccc3)o2)cc(OC)c1OC	> 30 µM	> 30 µM	> 30 µM	–
COc1ccc(-c2cnc(C(=O)c3ccccc3)o2)cc1	> 30 µM	> 30 µM	> 30 µM	–
COc1cccc(-c2cnc(C(=O)c3ccccc3)o2)c1	> 30 µM	> 30 µM	> 30 µM	–
CCN(CC)c1ccc(NC(=O)c2ncc(-c3ccccc3)o2)cc1	> 30 µM	> 30 µM	> 30 µM	–
O=C(Nc1ccc(O)cc1)c1ncc(-c2ccccc2)o1	1.08 µM	0.78 µM	1.27 µM	Activity [8]: 13.05%; inhibition [5]: 91%; Activity [9]: 1.14%; IC50 [4]: 3.36 µM; inhibition [10]: Dose-Dependent Effect; IC50 [6]: 16.7 µM; selectivity ratio [7]: 3.11; Activity [11]: 85.81%
O=C(Nc1ccc(Cl)cc1)c1ncc(-c2ccccc2)o1	> 30 µM	> 30 µM	> 30 µM	–
COc1ccc(NC(=O)c2ncc(-c3cc(OC)c(OC)c(OC)c3)o2)cc1	25.8 µM	20.5 µM	> 30 µM	–
COc1cc(-c2cnc(C(=O)c3ccccc3)o2)cc(OC)c1OC	> 30 µM	> 30 µM	> 30 µM	–
COc1cc(-c2cnc(C(=O)Nc3ccccc3)o2)cc(OC)c1OC	> 30 µM	27.3 µM	> 30 µM	–
Cc1ccc(NC(=O)c2ncc(-c3ccccc3)o2)cc1	> 30 µM	> 30 µM	> 30 µM	–
O=C(c1ncc(-c2ccccc2)o1)N1CCN(c2ccccc2)CC1	> 30 µM	> 30 µM	> 30 µM	–
O=C(Nc1ccc(O)cc1)c1ncc(-c2ccc(F)cc2)o1	> 30 µM	> 30 µM	> 30 µM	–
COc1ccc(NC(=O)c2ncc(-c3ccc(O)cc3)o2)cc1	11.3 µM	9.67 µM	17.3 µM	–
COc1ccc(-c2cnc(C(=O)Nc3ccc(O)cc3)o2)cc1	1.93 µM	1.44 µM	2.76 µM	inhibition [5]: 27%; IC50 [4]: 4.58 µM; IC50 [6]: > 40 µM; selectivity ratio [7]: 2.37
COc1cc(-c2cnc(C(=O)Nc3ccc(F)cc3)o2)cc(OC)c1OC	> 30 µM	> 30 µM	> 30 µM	–
CN(C)c1ccc(NC(=O)c2ncc(-c3ccccc3)o2)cc1	> 30 µM	> 30 µM	> 30 µM	–
COc1cc(-c2cnc(C(=O)Nc3ccc(O)cc3)o2)cc(OC)c1OC	> 30 µM	> 30 µM	> 30 µM	–
O=C(Nc1cccc(O)c1)c1ncc(-c2ccccc2)o1	> 30 µM	> 30 µM	> 30 µM	–
